Source: patent US20170035845A1, “Compositions and Methods for Inhibiting Pro-Inflammatory Cytokine Gene Expression” (The Regents of the University of California, priority 2015, published 2017)
Blank lines part the entries; values can stand above or below the molecule they belong to.

Key:
THP-1 macrophages = assay: Cytokine secretion ELISA, LPS-stimulated differentiated THP-1 cells; type: cell-based, human; settings: for release of TNF-α by LPS-stimulated THP-1 cells / secretion of IL-1β by LPS-stimulated THP-1 cells: comparison RTD-1 versus marimastat
Experimental: (§1) THP-1 monocytes (ATCC, Manassas, Va.) were cultured in RPMI 1640+10% FBS and penicillin/streptomycin (P/S). THP-1 Dual cells (Invivogen, San Diego, Calif.) which express the NF-κB reporter, secreted embryonic alkaline phosphatase (SEAP), were grown in RPMI 1640+10% HI-FBS and antibiotics. THP-1 cell differentiation was induced by treatment of cells (˜3.3×10^5 cells/ml) with 100 nM PMA and cultured for 2 days. HEK-Blue™ hTLR9 cells (Invivogen) were grown in DMEM medium containing 10% HI-FBS, P/S and normocin. Cells were cultured at 37° C. in 5% CO2. Cytokine assays. PMA-differentiated THP-1 cells (˜8×10^5 cells) cultured in 6-well plates were washed twice with complete medium and grown in fresh medium containing 1% FBS for 24 hours. Cells were washed twice with fresh medium and incubated for 2 hours prior to further manipulation. Cells were stimulated with 100 ng/ml LPS in the presence or absence of 10 μg/ml RTD-1 or vehicle (0.01% acetic acid) for 2 hours. In some experiments, cells were first incubated for 1 hour with 10 μg/ml of marimastat or vehicle (DMSO), after which LPS and/or RTD-1 were added and incubated for 2 hours as above. Peripheral blood CD14+ monocytes (Lonza, Walkersville, Md.) were thawed, rinsed with RPMI 1640 containing 10% HI FBS, P/S and normocin and then resuspended in RPMI 1640 containing 1% HI FBS plus antibiotics as above (10^6 cells/nil) for 2 hours. The cells were then stimulated for 4 hours as described in the legend. Medium was collected, clarified by centrifugation first at 250×g for 8 minutes and then at 5000×g for 5 minutes. TNF-α, IL-1β and IL-8 were quantified by ELISA (Life Technologies, Carlsbad, Calif.).

THP-1 cells [1] = assay: Real time quantitative PCR of cytokine mRNA, LPS-stimulated THP-1 cells; type: cell-based, human
Experimental: Differentiated THP-1 cells were treated with LPS and RTD-1 for 2 hours as above, washed with PBS and RNA was isolated using an RNA mini kit (Zymo Research, Irvine, Calif.) or with RNeasy mini kit (Qiagen, Valencia, Calif.). RNA integrity was confirmed on agarose gels and RNA samples with A260/280 and A260/230 ratios ≧1.7 were used to generate cDNA. Briefly, 400 ng RNA was incubated with genomic DNA (gDNA) elimination (GE) buffer for 5 minutes at […]. and reverse transcribed using the RT^2 first strand synthesis kit (Qiagen). Custom PCR arrays (SA Biosciences, Frederick, Md.) containing human genes of interest and controls (for reverse transcriptase and PCR efficiency, RTC and PPC respectively) were used for simultaneous real time PCR analysis. Master mix containing cDNA and RT^2 SYBR Green™ was added to array wells. PCR cycling parameters were: 1 cycle 10 minutes at 95° C., 40 cycles of 15 seconds at 95° C., 1 minute at 60° C. on a BioRad C1000 Thermal Cycler equipped with a CFX96 real time system. Melting curve analysis confirmed a single amplicon with CT PPC=20±2 and ACT (RTC-PPC)<5 for all samples. The ACTB gene was used for normalization of gene expression and fold stimulation (compared to untreated cells) was calculated using the ΔΔCT method. Absence of gDNA in cDNA samples (CT>35) was confirmed using a human gDNA primer (SA Biosciences).

primary human monocytes [2] = assay: Immunoblot analyses of primary human monocyte extracts; type: cell-based
Experimental: EDTA-anticoagulated blood was incubated with human monocyte enrichment cocktail (Stem Cell Technologies, Vancouver, BC, Canada) for 20 minutes and layered on Ficoll Paque™ in a Sepmate™ 50 tube (Stem Cell Tech). The cells were centrifuged at 1200×g for 10 minutes and the monocyte containing layer of cells was isolated, washed with PBS containing 2% HI FBS and 1 mM EDTA.
(§2) Differentiated THP-1 cells (˜8×10^5 cells/2.5 ml medium) were starved in complete medium containing […] for 1 day as above, and fresh 2.5 ml RPMI 1640+1% FBS+P/S was added for 2 hours. For experiments with fresh monocytes, cells (>80% CD14+) were resuspended (˜10^6 cells/nil) in monocyte attachment medium (Promocell, Heidelberg, Germany) in wells of a 12 well plate for 2 hours at 37° C. in 5% CO2. The cells were then washed two times with RPMI medium containing 1% HI FBS and suspended overnight in RPMI medium containing 1% HI FBS. Cells were stimulated with agonists with or without RTD-1 (SEQ ID NO. 1) as described in the figure legends after which cells were washed with PBS and extracts were prepared in cell lysis buffer+1 mM PMSF. Protein content was determined using the BCA method (BioRad, San Diego, Calif.) and extracts resolved on SDS-tricine gels and transferred to nitrocellulose membrane. The membranes were probed with the indicated antibodies and developed using anti-mouse or anti-rabbit HRP conjugated secondary antibodies and detected by chemiluminescence. A phosphoprotein antibody array (Phospho-MAPK™; R&D systems Minneapolis, Minn.) was used to analyze activation of phosphoprotein kinases. Differentiated THP-1 cells (1.6×10^6 cells) were treated with 100 ng/ml LPS, 10 μg/ml RTD-1 (SEQ ID NO. 1), 100 ng/ml LPS+10 μg/ml RTD-1, or vehicle for 30 minutes. Arrays were probed with 200 μg of cell extract protein and chemiluminescence of spots from arrays or bands from western blotting was quantified using NIH ImageJ software, background subtracted, normalized and plotted.

[3] = system: TLR9-dependent NF-κB activation; assay: TLR9-dependent NF-κB activation (SEAP) in HEK-Blue hTLR9 cells; type: cell-based, human; settings: ODN2006, RTD-1 10 μg/ml
Experimental: (§3) One ml aliquots of PMA-differentiated THP-1 Dual cells (3.3×10^5 cells/nil) in 24 well tissue culture plates were starved for 1 day in complete medium with 1% HI FBS as described above. For experiments with S7 peptide, 0.5 ml cultures in 48 well plates were used. Fresh medium containing 1% HI FBS was added to the cells and after 2 hours cells were stimulated with 100 ng/ml LPS or 25 ng/ml Pam3CSK4 in the presence of RTD-1 or 0.01% acetic acid (HOAc, vehicle). In some experiments cells were pre-incubated with marimastat, Ly294002 or vehicle for 1 hour prior to addition of LPS and/or RTD-1 (SEQ ID NO. 1). Following overnight incubation, medium was clarified by centrifugation and SEAP activity was determined using Quantiblue reagent at 37° C. and measurement of absorbance at 625 nm. To test the effect of RTD-1 on TLR9-dependent NF-κB activation, 2×10^5 HEK-Blue™ hTLR9 cells/ml were cultured for 1 day in 24 well plates and stimulated overnight with ODN2006 with or without RTD-1. Medium was harvested and SEAP activity was assayed using Quantiblue™ as above. NF-κB activation was defined as fold stimulation of SEAP activity with respect to control cells.

inflammatory cytokines = settings: mouse models; cited from earlier work
NF-κB p65 = assay: NF-κB DNA-binding activity (p65 ELISA) in THP-1 nuclear extracts; type: cell-based, human
Experimental: Nuclear extracts were prepared (nuclear extraction kit; Cayman Chemical Co., Ann Arbor, Mich.) from differentiated THP-1 cells treated for 30 minutes with vehicle, LPS (100 ng/ml) or TNF-α (2 ng/ml) in the presence or absence of 10 μg/ml RTD-1 (SEQ ID NO. 1). NF-κB DNA binding was quantified by p65 ELISA (Cayman Chemical Co.). Non-specific DNA-binding, positive control extract and positive control extract treated with competitor DNA control included with the ELISA were used to confirm specificity of DNA-binding.

[4] = system: peripheral blood leukocytes; assay: Cytokine secretion by peripheral blood leukocytes stimulated with TLR agonists; type: cell-based, human; settings: stimulated by agonists of TLRs 2, 4, 5, and 8
NF-κB = NF-κB activity assay (SEAP reporter, Quantiblue) in THP-1 Dual cells; type: cell-based, human; settings: for LPS-stimulated NF-κB activation: comparison RTD-1 versus marimastat, RTD-1 in the presence or absence of marimastat
Experimental: as §3

THP-1 cells [5] = assay: Immunoblot analyses of THP-1 cell extracts; type: cell-based, human
Experimental: as §2

whole blood = assay: TNF-α secretion by E. coli stimulated whole blood; type: cell-based
primary human monocytes [6] = assay: Cytokine secretion ELISA, LPS-stimulated primary human monocytes; type: cell-based; settings: LPS 20 ng/ml, 4 hours, RTD-1 10 μg/ml
Experimental: as §1

THP-1 cells [7] = assay: Phospho-MAPK phosphoprotein antibody array, THP-1 cells; type: cell-based, human
Experimental: as §2

[8] = system: peripheral blood leukocytes; settings: human peripheral blood leukocytes, diverse TLR agonists (Schaal et al 2012); cited from earlier work
[9] = LPS 100 ng/ml, 2 hours, RTD-1 10 μg/ml, THP-1 macrophages
[10] = LPS 100 ng/ml, RTD-1 10 μg/ml, 2 hours
[11] = LPS 100 ng/ml, RTD-1 10 μg/ml, 30 minutes
[12] = LPS 100 ng/ml + RTD-1 10 μg/ml, 30 minutes

p38 MAP kinase phosphorylation in LPS stimulated monocytes (primary human monocytes [2]; [11]): inhibited
p38 MAP kinase phosphorylation (primary human monocytes [2]; peptide alone, monocytes): no effect
NF-κB DNA binding, LPS-stimulated (NF-κB p65; [11]): to baseline levels
translocation of NF-κB p65 to the nucleus (NF-κB p65; LPS stimulated macrophages, Western blot of nuclear extracts): inhibit translocation
suppression of TNF-α-stimulated NF-κB DNA binding (NF-κB p65; TNF-α 2 ng/ml, RTD-1 10 μg/ml, 30 minutes, compared with TNF-α alone): ~35%
binding to LPS (Binding to LPS): binds inefficiently
Molecule: RTD-1: rhesus theta-defensin 1, macrocyclic tri-disulfide θ-defensin peptide, SEQ ID NO. 1, synthetic (cyclo(GFCRCLCRRGVCRCICTR); disulfide (positions not given here); not fully specified (bridges); also: three disulfides, places not given here; listed as Macaca mulatta)
suppression of secretion of IL-1β (THP-1 macrophages; [9]): > 90%
suppression of secretion of IL-8 (THP-1 macrophages; [9]): > 90%
suppression of secretion of TNF-α (THP-1 macrophages; [9]): > 90%
release of TNF-α by LPS-stimulated THP-1 cells (THP-1 macrophages; LPS 100 ng/ml): blocked both cytokines effectively
secretion of IL-1β by LPS-stimulated THP-1 cells (THP-1 macrophages; LPS 100 ng/ml): blocked both cytokines effectively
effect on THP-1 cytokine secretion (THP-1 macrophages; RTD-1 alone, no LPS): no effect
LPS-induced mRNA expression of CCL3 (THP-1 cells [1]; [10]): markedly inhibited
LPS-induced mRNA expression of CCL4 (THP-1 cells [1]; [10]): markedly inhibited
LPS-induced mRNA expression of IL-1β (THP-1 cells [1]; [10]): markedly inhibited
LPS-induced mRNA expression of IL-8 (THP-1 cells [1]; [10]): markedly inhibited
LPS-induced mRNA expression of TNF-α (THP-1 cells [1]; [10]): markedly inhibited
expression of GAPDH (THP-1 cells [1]; addition of RTD-1): no effect
cytokine mRNA expression (THP-1 cells [1]; peptide alone, no LPS): no effect
degradation of IκBα in LPS stimulated monocytes (primary human monocytes [2]; [11]): reduced
degradation of IκBα (primary human monocytes [2]; RTD-1 alone, monocytes): did not induce
phosphorylation of Akt (primary human monocytes [2]; monocytes treated with LPS and RTD-1 or RTD-1 alone, compared to control cells): increased phosphorylation
suppression of ODN2006-mediated NF-κB activation [3]: to baseline levels
inflammatory cytokines, including TNF-α, IL-1β and several chemokines (inflammatory cytokines): reduce inflammatory cytokines
secretion of several inflammatory cytokines [4]: suppressed secretion
dose dependence of inhibition of NF-κB activation (NF-κB; LPS 100 ng/ml, RTD-1 5 and 10 μg/ml): dose dependent
LPS-stimulated NF-κB activation (NF-κB; LPS 100 ng/ml): potent inhibitor
suppression of LPS-induced NF-κB activation (NF-κB; LPS 100 ng/ml, simultaneous RTD-1 10 μg/ml, THP-1 Dual cells): ~70%
direct effect on the enzymatic activity of the SEAP reporter (NF-κB; LPS/RTD-1 control): no direct effect
inhibition of Pam3CSK4-induced NF-κB activity (NF-κB; Pam3CSK4 25 ng/ml, RTD-1 10 μg/ml): ~70%
effect on NF-κB activation (NF-κB; RTD-1 alone, no LPS): no effect
JNK1/2 kinase phosphorylation (THP-1 cells [5]; LPS 100 ng/ml, RTD-1 10 μg/ml): inhibition
degradation of IκBα in LPS stimulated macrophages (THP-1 cells [5]; LPS 100 ng/ml, RTD-1 10 μg/ml): effective in blocking
p38 MAP kinase phosphorylation (THP-1 cells [5]; LPS 100 ng/ml, RTD-1 10 μg/ml): inhibition
P-Akt levels remained elevated (THP-1 cells [5]; RTD-1 10 μg/ml alone, for at least 4 hours): ~2.5 fold
increase in P-Akt (THP-1 cells [5]; RTD-1 10 μg/ml alone, within 10 minutes of peptide treatment): 6.5 fold
IκBα levels and phosphorylation of p38 MAP and JNK1/2 kinases (THP-1 cells [5]; RTD-1 alone): no effect
speed of blockade of TNF-α secretion (whole blood): extremely rapid
suppression of secretion of IL-1β (primary human monocytes [6]): > 90%
suppression of secretion of IL-8 (primary human monocytes [6]): > 90%
suppression of secretion of TNF-α (primary human monocytes [6]): > 90%
LPS-induced phosphorylation of CREB (THP-1 cells [7]; [12]): to baseline levels
LPS-induced phosphorylation of ERK2 (THP-1 cells [7]; [12]): to baseline levels
LPS-induced phosphorylation of H5P27 (THP-1 cells [7]; [12]): to baseline levels
LPS-induced phosphorylation of JNK2 (THP-1 cells [7]; [12]): to baseline levels
LPS-induced phosphorylation of p38α (THP-1 cells [7]; [12]): to baseline levels
LPS-induced phosphorylation of p38γ (THP-1 cells [7]; [12]): to baseline levels
phosphorylation of CREB, ERK2, H5P27, JNK2, p38α and p38γ (THP-1 cells [7]; RTD-1 alone): did not suppress
phosphorylation of Akt1 (THP-1 cells [7]; RTD-1 alone or in combination with LPS): selectively stimulated
baseline phosphorylation of other kinase targets (THP-1 cells [7]; RTD-1 alone, otherwise untreated cells): did not increase
inhibition of cytokine secretion [8]: potent inhibitor

Molecule: CNC(=O)[C@@H](NC(=O)[C@H](CC(C)C)[C@H](O)C(=O)NO)C(C)(C)C [marimastat, reference compound]
release of TNF-α by LPS-stimulated THP-1 cells (THP-1 macrophages; LPS 100 ng/ml): efficiently blocked
secretion of IL-1β by LPS-stimulated THP-1 cells (THP-1 macrophages; LPS 100 ng/ml): did not affect
LPS-stimulated NF-κB activation (NF-κB; LPS 100 ng/ml): no effect

Molecule: HNP-1: human neutrophil α-defensin HNP-1 purified from neutrophils [reference compound]
inhibition of NF-κB activity (NF-κB; LPS 100 ng/ml, equimolar concentrations used in place of RTD-1): no inhibition
